One assay concerns the target T1, Human ASK1 (Homo sapiens, UniProt Q99683).
T1 construct: expressed in transfected cells; host or cells: HEK293T-AP1
T1 sequence (Q99683 1-1374): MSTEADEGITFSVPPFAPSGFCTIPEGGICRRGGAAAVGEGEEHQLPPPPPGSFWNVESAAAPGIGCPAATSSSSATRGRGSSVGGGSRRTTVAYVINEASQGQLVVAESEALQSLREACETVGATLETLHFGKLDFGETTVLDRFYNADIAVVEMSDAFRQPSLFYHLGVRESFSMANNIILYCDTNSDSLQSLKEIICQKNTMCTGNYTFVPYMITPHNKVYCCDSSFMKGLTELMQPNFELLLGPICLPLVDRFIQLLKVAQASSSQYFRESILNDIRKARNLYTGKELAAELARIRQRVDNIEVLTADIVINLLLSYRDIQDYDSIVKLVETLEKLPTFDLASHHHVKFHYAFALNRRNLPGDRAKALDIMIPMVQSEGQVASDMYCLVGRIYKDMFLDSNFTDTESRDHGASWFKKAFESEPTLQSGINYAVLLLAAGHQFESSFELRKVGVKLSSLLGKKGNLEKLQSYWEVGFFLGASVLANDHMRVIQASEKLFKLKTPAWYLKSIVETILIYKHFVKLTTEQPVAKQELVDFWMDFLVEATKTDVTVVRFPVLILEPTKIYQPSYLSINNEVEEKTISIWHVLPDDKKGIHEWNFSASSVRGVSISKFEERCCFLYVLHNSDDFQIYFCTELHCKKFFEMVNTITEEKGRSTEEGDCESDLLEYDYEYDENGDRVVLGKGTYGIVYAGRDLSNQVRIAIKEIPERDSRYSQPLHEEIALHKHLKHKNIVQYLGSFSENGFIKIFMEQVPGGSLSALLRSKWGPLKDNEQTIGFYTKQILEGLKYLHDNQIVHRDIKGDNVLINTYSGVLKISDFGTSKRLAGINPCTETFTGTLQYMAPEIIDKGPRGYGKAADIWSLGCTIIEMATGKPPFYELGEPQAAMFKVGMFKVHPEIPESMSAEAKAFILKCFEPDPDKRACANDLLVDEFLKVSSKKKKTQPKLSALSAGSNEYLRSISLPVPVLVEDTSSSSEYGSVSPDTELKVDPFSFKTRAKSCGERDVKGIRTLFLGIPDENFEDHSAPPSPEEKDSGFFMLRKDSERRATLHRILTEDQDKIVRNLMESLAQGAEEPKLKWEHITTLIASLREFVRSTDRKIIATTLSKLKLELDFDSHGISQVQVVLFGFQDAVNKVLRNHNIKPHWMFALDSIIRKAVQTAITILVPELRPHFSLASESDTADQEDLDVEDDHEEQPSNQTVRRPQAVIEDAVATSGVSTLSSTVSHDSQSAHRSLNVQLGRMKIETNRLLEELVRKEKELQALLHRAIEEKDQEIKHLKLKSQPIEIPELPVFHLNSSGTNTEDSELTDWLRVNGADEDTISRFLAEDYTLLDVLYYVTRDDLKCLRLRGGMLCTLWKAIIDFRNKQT
The experiment in a line: ASK1 Cell Based Assay (phospho p38 read out in hASK1 transfected HEK293T-AP1 cells). To be noted: HEK293T-AP1 cells, 1 mM hydrogen peroxide, phospho p38; read-out: Cell Based Assay IC50. An outline of the steps: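 HEK293T-AP1 cells transfected with hASK1, after 24 h treated with compounds for 24 h (0.2% DMSO), then stimulated with 1 mM H2O2 for 1 h with compounds present.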

The target of the next assay is T2, recombinant ASK1 (Homo sapiens, UniProt Q99683).
T2 construct: purchased Carna Biosciences
Put plainly: ASK1 Biochemical Assay (HTRF KinEASE-STK S3). To be noted: ATP 100 μM; read-out: Biochemical Assay IC50. The method in brief:
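Recombinant ASK1 (5 ng) preincubated with compound 1 h at 23 °C in MOPS pH 7 buffer with Mg-acetate, DTT, NP40, glycerol, BSA and 1% DMSO. Inhibition calculated against vehicle after substrate-blank subtraction.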
In general terms: TR-FRET usually uses a lanthanide donor and a delayed reading to cut background.

By IC50 is commonly meant the concentration at which inhibition is half-maximal.

For `CC(C)n1cnnc1-c1cccc(N2CCN(c3ccc(N4CCOCC4)c(F)c3)C2=O)n1` [Example 1075, 1-(3-fluoro-4-morpholinophenyl)-3-(6-(4-isopropyl-4H-1,2,4-triazol-3-yl)pyridin-2-yl)imidazolidin-2-one], the IC50 at Human ASK1 is above 1000 nM; at recombinant ASK1 it was below 100 nM.

Regarding `COc1ccc(N2CCN(c3cccc(-c4nncn4C(C)C)n3)C2=O)cc1` [Example 1039, 1-(6-(4-isopropyl-4H-1,2,4-triazol-3-yl)pyridin-2-yl)-3-(4-methoxyphenyl)imidazolidin-2-one], the IC50 was above 1000 nM on Human ASK1 and below 100 nM at recombinant ASK1.

Take `CC(C)n1cnnc1-c1cccc(N2CCN(c3ccc(C4CCN(S(C)(=O)=O)CC4)cc3)C2=O)n1` [Example 1084, 1-(6-(4-isopropyl-4H-1,2,4-triazol-3-yl)pyridin-2-yl)-3-(4-(1-(methylsulfonyl)piperidin-4-yl)phenyl)imidazolidin-2-one]: the IC50 was above 1000 nM at Human ASK1 and below 100 nM on recombinant ASK1.

Regarding `CC(C)n1cnnc1-c1cccc(N2CCN(c3ccc(S(N)(=O)=O)cc3)C2=O)n1` [Example 1020, 4-(3-(6-(4-isopropyl-4H-1,2,4-triazol-3-yl)pyridin-2-yl)-2-oxoimidazolidin-1-yl)benzenesulfonamide], the figures for the IC50 at Human ASK1 and at recombinant ASK1 were above 10000 nM and below 100 nM, respectively.

For the compound `CC(C)n1cnnc1-c1cccc(N2CCN(c3ccc(S(C)(=O)=O)c(C4CC4)c3)C2=O)n1` [Example 1059, 1-(3-cyclopropyl-4-(methylsulfonyl)phenyl)-3-(6-(4-isopropyl-4H-1,2,4-triazol-3-yl)pyridin-2-yl)imidazolidin-2-one], the IC50 at Human ASK1 is above 1000 nM; at recombinant ASK1, below 100 nM.

As for `CC(C)n1cnnc1-c1cccc(N2CCN(c3ccc(NC(C#N)C4CC4)cc3)C2=O)n1` (centres unmarked) [Example 1056, 2-(4-(3-(6-(4-isopropyl-4H-1,2,4-triazol-3-yl)pyridin-2-yl)-2-oxoimidazolidin-1-yl)phenylamino)-2-cyclopropylacetonitrile], the IC50 on Human ASK1 is above 1000 nM; on recombinant ASK1 it was above 100 nM.

On to `CC(C)n1cnnc1-c1cccc(N2CCN(c3ccc(N4CCOCC4)nc3)C2=O)n1` [Example 1101, 1-(6-(4-isopropyl-4H-1,2,4-triazol-3-yl)pyridin-2-yl)-3-(6-morpholinopyridin-3-yl)imidazolidin-2-one], for which the IC50 on Human ASK1 is 190 nM; on recombinant ASK1, below 50 nM.

As to `CC(C)C(c1ccc(N2CCN(c3cccc(-c4nncn4C(C)C)n3)C2=O)cc1)N1CCOCC1` (centres unmarked) [Example 1129, 1-(6-(4-isopropyl-4H-1,2,4-triazol-3-yl)pyridin-2-yl)-3-(4-(2-methyl-1-morpholinopropyl)phenyl)imidazolidin-2-one], the figures for the IC50 on Human ASK1 and on recombinant ASK1 were above 1000 nM and below 100 nM, respectively.

For `CC(C)n1cnnc1-c1cccc(N2CCN(c3ccc(S(C)(=O)=O)cc3F)C2=O)n1` [Example 1032, 1-(2-fluoro-4-(methylsulfonyl)phenyl)-3-(6-(4-isopropyl-4H-1,2,4-triazol-3-yl)pyridin-2-yl)imidazolidin-2-one], the IC50 was above 1000 nM at Human ASK1 and below 100 nM on recombinant ASK1.

`CC(C)n1cnnc1-c1cccc(N2CCN(c3ccc(N4CC(NC5CC5)C4)cc3)C2=O)n1` [Example 1094, 1-(4-(3-(cyclopropylamino)azetidin-1-yl)phenyl)-3-(6-(4-isopropyl-4H-1,2,4-triazol-3-yl)pyridin-2-yl)imidazolidin-2-one]: the IC50 on Human ASK1 was above 1000 nM; at recombinant ASK1, below 100 nM.

The record behind these values is US20220332700A1, “NOVEL APOPTOSIS SIGNAL-REGULATING KINASE 1 INHIBITORS” (MANKIND PHARMA LTD, priority 2019, published 2022).
